What all share (type): in vivo, C57BL/6 mice
Test [1] relates to Occludin, Claudin-1, ZO-1 gene expression. In words: q-PCR of tight junction gene expression in colons. The conditions noted are these: for gene expressions of ZO-1: p<0.05. As to the method:
(§1) The C57BL/6 mice, which weighed between 23 and 25 g, were divided into seven groups randomly. In each group, the six mice induced by blue light successfully were incorporated in experiments. The samples dissolved in deuterium-depleted water (DDW) were fed to mice through oral tubes once a day. The groups were named and introduced as follows: • (1) Solvent not classified group (NC): The mice were fed with 0.2 ml deuterium-depleted water (DDW) through tubes; • (2) Negative control group (Blue light (BL)): The mice were fed with 0.2 ml deuterium-depleted water (DDW) through tubes and exposed to blue light; • (3) Low-dosage Y7 probiotics group […]): The mice were fed with low-dosage Y7 probiotics (probiotic counts of 1.0×10^8 CFU/ml dissolved in 0.2 ml DDW per day) and exposed to blue light; • (4) High-dosage Y7 probiotics group […]): The mice were fed with high-dosage Y7 probiotics (probiotic counts of 1.0×10^9 CFU/ml dissolved in 0.2 ml DDW per day) and exposed to blue light; • (5) Positive control group (lutein (LU)): The mice were fed with lutein and exposed to blue light. The recommended human dosage of lutein is 30 mg. The mouse cage (48×25×20 cm) placed inside a stainless ventilated box was equipped with blue light boards as blue light sources around and above. In the experiment of animals exposed to blue light, six-week-old mice staying in the mouse cage were fed with drinking water as well as fodders and exposed to 400 Lux blue light illumination under the light-dark cycle of 12-hour light and 12-hour dark. The experiment was aimed at causing mice' late dry macular disease induced by chronic light injuries for simulating a human being's macular disease after long-term exposure to short-wavelength blue light from 3C products in daily life. The eyes of a mouse sacrificed were collected for the following purposes. RNAs extracted with Trizol were reverse-transcribed to cDNAs. Then, the real-time quantitative polymerase chain reaction was enabled to detect gene expressions related to inflammatory hormones and apoptosis such as TNF-α, IL-1B, IL-6, Bax, Bcl-2, Caspase1, Caspase3 and NLRP3 for comparisons with the endogenous level of β-actin, GAPDH or 18S rRNA. [table] The gene expressions related to tight junctions of mice' eyes, buccal mucosas and colons after induction of blue light were analyzed through q-PCR and shown in FIG. 10a, FIG. 10d and FIG. 10g for Occludin, FIG. 10b, FIG. 10e and FIG. 10h for Claudin-1 and FIG. 10c, FIG. 10f and FIG. 10i for ZO-1, respectively.

For test [2], the system named is MCP-1, IL-18, NLRP3, NF-KB p65, Caspase1 gene expression. In words: q-PCR of inflammation-related gene expression in eyes. The following applies: for gene expression of MCP-1 compared with the BL group / gene expression of NF-KB p65 compared with the BL group: p<0.05; for gene expression of Caspase1 / gene expression of IL-18 / gene expression of NLRP3: versus increase in BL group. As to the method:
as §1, with “a mouse's ocular inflammation, for example, MCP-1 (FIG. 8a), IL-18 (FIG. 8b), NLRP3 (FIG. 8c), NF-KB p65 (FIG. 8d), Caspase1 (FIG. 8e), TNF-α (FIG. 8f), IL-6 (FIG. 8g)” for “tight junctions of mice' eyes, buccal mucosas”, “IL-1β (FIG. 8h),” for “colons after induction of blue light”, “analyzed” for “analyzed through q-PCR and shown”, “the experiment. […] In summary, the intervention of Y7 probiotics relieved ocular inflammation attributed to blue light.” for “FIG. 10a, FIG. 10d and FIG. 10g for Occludin, FIG. 10b, FIG. 10e and FIG. 10h for Claudin-1 and FIG. 10c, FIG. 10f and FIG. 10i for ZO-1, respectively.”

In test [3] the test system is Occludin, Claudin-1, ZO-1 gene expression. In words: q-PCR of tight junction gene expression in buccal mucosas. The conditions noted are these: Y7H high-dosage group, p<0.05. The source says:
The C57BL/6 mice, which weighed between 23 and 25 g, were divided into seven groups randomly. In each group, the six mice induced by blue light successfully were incorporated in experiments. The samples dissolved in deuterium-depleted water (DDW) were fed to mice through oral tubes once a day. […] Then, the real-time quantitative polymerase chain reaction was enabled to detect gene expressions related to inflammatory hormones and apoptosis such as TNF-α, IL-1B, IL-6, Bax, Bcl-2, Caspase1, Caspase3 and NLRP3 for comparisons with the endogenous level of β-actin, GAPDH or 18S rRNA. […] The gene expressions related to tight junctions of mice' eyes, buccal mucosas and colons after induction of blue light were analyzed through q-PCR and shown in FIG. 10a, FIG. 10d and FIG. 10g for Occludin, FIG. 10b, FIG. 10e and FIG. 10h for Claudin-1 and FIG. 10c, FIG. 10f and FIG. 10i for ZO-1, respectively.

From patent US20250099517A1, “Use of Lactobacillus reuteri Y7 strain for prevention or treatment of ocular diseases” (Taipei Medical University, priority 2023, published 2025) come the findings set out here.

As for “Lactobacillus reuteri Y7 [Y7 probiotics]”, in test [1] (Y7H high-dosage group), the “gene expressions of Claudin-1” value is “ascending trend”, the “gene expressions of Occludin” value is “ascending trend” and the “gene expressions of ZO-1” value is on record as “increased significantly”. For the same substance, in test [1] (Y7L low-dosage group), the “gene expressions of Claudin-1” value is “ascending trend”, the “gene expressions of Occludin” value is “ascending trend” and the “gene expressions of ZO-1” value is recorded as “increased significantly”. For the same substance, in test [2] (Y7H high-dosage group), the “gene expression of MCP-1 compared with the BL group” value is “reduced significantly”, the “gene expression of NF-KB p65 compared with the BL group” value is “reduced significantly”, the “gene expression of Caspase1” value is “decreased” and the “gene expression of IL-18” value is listed as “decreased”. The “gene expression of NLRP3” value in test [2] (Y7H high-dosage group) is reported as “decreased”. In test [2] (Y7L low-dosage group), the “gene expression of MCP-1 compared with the BL group” value was “reduced significantly”, the “gene expression of NF-KB p65 compared with the BL group” value is reported as “reduced significantly”, the “gene expression of Caspase1” value is listed as “decreased” and the “gene expression of IL-18” value is on record as “decreased”. For the same substance, the “gene expression of NLRP3” value in test [2] (Y7L low-dosage group) is listed as “decreased”. Also, the “gene expressions of ZO-1 compared with NC, BL or LU groups” value in test [3] is “increased significantly”.
